Source: patent publication US9376436B2, “2-(pyridin-2yl)-1, 7-diaza-spiro [4.4] nonane-6-one compound as voltage-gated sodium channels modulators” (CONVERGENCE PHARMACEUTICALS LIMITED, priority 2011, dated 2016)
Structures can show the parent of a compound that is named as a salt. Where two headings read alike, the source gives them in different places.

Target: T1, hNaV1.7 (Homo sapiens, UniProt Q15858)
T1 construct: expressed in transfected cells; host or cells: HEK293
Test: QPatch NaV1.7 assay (whole-cell patch clamp, QPatch16x)
Assay type: cell-based
Conditions: HEK293-hNaV1.7 cells
In short: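 HEK293 cells expressing hNaV1.7 recorded by automated whole-cell patch clamp (CsF internal, pH 7.3). Peak currents from 20 ms steps to 0 mV measured at holding potentials of −90 mV and V1/2 SSI; four-point cumulative concentrations, 120 s each, Hill fits gave pIC50 at each potential.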

[1] = holding voltage V1/2 SSI (half of channels inactivated), read-out: QP Nav1.7 SSI vhalf pIC50 (converted)
[2] = holding voltage −90 mV (most channels closed), read-out: QP Nav1.7 −90 mV pIC50 (converted)

T1 sequence (Q15858 whole entry): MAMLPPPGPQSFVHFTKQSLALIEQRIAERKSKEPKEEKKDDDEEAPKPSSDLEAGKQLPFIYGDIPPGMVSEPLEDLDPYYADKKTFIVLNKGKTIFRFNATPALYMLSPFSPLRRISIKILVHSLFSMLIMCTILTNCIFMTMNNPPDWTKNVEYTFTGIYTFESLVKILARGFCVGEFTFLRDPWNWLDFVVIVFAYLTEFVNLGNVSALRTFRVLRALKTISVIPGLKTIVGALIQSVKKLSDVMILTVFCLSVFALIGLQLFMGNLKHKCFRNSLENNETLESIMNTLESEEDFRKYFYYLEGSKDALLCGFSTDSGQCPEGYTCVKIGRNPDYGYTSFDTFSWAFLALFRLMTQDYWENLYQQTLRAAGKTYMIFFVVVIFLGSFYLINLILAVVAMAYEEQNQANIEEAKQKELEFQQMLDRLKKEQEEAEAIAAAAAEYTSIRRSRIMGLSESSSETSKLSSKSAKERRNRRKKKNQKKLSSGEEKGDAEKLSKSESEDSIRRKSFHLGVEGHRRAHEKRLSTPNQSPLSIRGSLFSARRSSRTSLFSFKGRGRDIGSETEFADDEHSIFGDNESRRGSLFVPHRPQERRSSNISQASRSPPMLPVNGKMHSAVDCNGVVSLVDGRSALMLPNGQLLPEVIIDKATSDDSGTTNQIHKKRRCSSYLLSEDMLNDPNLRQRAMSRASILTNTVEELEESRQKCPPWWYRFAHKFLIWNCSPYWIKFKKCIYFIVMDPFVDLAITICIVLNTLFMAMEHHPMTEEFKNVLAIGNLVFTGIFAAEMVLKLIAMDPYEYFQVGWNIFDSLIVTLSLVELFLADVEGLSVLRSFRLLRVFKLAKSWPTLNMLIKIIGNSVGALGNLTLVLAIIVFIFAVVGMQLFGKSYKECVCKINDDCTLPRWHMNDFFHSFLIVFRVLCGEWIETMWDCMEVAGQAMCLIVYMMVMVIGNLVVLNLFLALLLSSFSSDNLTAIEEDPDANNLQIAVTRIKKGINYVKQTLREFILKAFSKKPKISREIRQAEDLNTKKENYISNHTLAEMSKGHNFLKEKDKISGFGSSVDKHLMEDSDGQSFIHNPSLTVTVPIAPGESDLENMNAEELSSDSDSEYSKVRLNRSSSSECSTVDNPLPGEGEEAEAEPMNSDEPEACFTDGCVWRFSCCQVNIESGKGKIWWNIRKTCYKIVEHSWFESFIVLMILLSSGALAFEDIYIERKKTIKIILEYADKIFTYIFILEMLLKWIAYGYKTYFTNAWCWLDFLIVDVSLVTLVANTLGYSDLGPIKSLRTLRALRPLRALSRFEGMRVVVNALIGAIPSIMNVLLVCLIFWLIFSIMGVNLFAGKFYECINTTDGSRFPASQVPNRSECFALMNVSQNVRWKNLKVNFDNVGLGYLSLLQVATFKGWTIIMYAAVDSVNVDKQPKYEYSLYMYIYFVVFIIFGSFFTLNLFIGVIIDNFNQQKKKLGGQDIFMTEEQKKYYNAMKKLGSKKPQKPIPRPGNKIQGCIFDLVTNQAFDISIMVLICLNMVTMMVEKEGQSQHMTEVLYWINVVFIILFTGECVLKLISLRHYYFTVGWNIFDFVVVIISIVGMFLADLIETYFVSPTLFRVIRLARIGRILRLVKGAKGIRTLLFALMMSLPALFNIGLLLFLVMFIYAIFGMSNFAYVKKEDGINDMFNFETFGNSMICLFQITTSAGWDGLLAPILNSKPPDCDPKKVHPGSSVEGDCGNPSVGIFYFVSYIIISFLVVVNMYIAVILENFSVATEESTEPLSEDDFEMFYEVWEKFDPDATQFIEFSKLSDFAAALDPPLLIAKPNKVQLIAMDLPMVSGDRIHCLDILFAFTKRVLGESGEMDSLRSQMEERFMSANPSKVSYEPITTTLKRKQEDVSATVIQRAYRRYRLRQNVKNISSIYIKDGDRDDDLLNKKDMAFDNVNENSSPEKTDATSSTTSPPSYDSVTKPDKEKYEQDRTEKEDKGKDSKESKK

| SMILES | IC50 [1] [µM] | IC50 [2] [µM] |
| --- | --- | --- |
| CN1CC[C@@]2(CC[C@H](c3cc(-c4ccc(C5(C#N)CC5)cc4)ccn3)N2)C1=O [Example 171, 1-[4-[2-[(2R,5S)-7-Methyl-6-oxo-1,7-diazaspiro[4.4]nonan-2-yl]-4-pyridyl]phenyl]cyclopropanecarbonitrile hydrochloride] | 50.1 | 158 |
| CN1CC[C@@]2(CC[C@H](c3cc(-c4ccc5c(c4)OC(F)(F)O5)ccn3)N2)C1=O [Example 172, (2R,5S)-2-[4-(2,2-Difluoro-1,3-benzodioxol-5-yl)-2-pyridyl]-7-methyl-1,7-diazaspiro[4.4]nonan-6-one hydrochloride] | 31.6 | 316 |
| CN1CC[C@@]2(CC[C@H](c3cc(-c4cccc(-n5cccn5)c4)ccn3)N2)C1=O [Example 173, (2R,5S)-7-Methyl-2-[4-(3-pyrazol-1-ylphenyl)-2-pyridyl]-1,7-diazaspiro[4.4]nonan-6-one hydrochloride] | 12.6 | 200 |
| CN1CC[C@@]2(CC[C@H](c3cc(-c4cc(OC(F)(F)F)ccc4F)ccn3)N2)C1=O [Example 176, (2R,5S)-2-[4-[2-Fluoro-5-(trifluoromethoxy)phenyl]-2-pyridyl]-7-methyl-1,7-diazaspiro[4.4]nonan-6-one hydrochloride] | 20 | 200 |
| CC(C)Oc1ccc(-c2ccnc([C@H]3CC[C@@]4(CCN(C)C4=O)N3)c2)cc1C#N [Example 180, 2-Isopropoxy-5-[2-[(2R,5S)-7-methyl-6-oxo-1,7-diazaspiro[4.4]nonan-2-yl]-4-pyridyl]benzonitrile hydrochloride] | 20 | 1000 |
| Cc1ccn(-c2ccc(F)c(-c3ccnc([C@H]4CC[C@@]5(CCN(C)C5=O)N4)c3)c2)n1 [Example 182, (2R,5S)-2-[4-[2-Fluoro-5-(3-methylpyrazol-1-yl)phenyl]-2-pyridyl]-7-methyl-1,7-diazaspiro[4.4]nonan-6-one hydrochloride] | 15.8 | 100 |
| Cc1cnn(-c2ccc(F)c(-c3ccnc([C@H]4CC[C@@]5(CCN(C)C5=O)N4)c3)c2)c1 [Example 183, (2R,5S)-2-[4-[2-Fluoro-5-(4-methylpyrazol-1-yl)phenyl]-2-pyridyl]-7-methyl-1,7-diazaspiro[4.4]nonan-6-one hydrochloride] | 3.16 | 63.1 |
| CN1CC[C@@]2(CC[C@H](c3cc(-c4cc(-n5cccn5)ccc4F)ccn3)N2)C1=O [Example 184, (2R,5S)-2-[4-(2-Fluoro-5-pyrazol-1-yl-phenyl)-2-pyridyl]-7-methyl-1,7-diazaspiro[4.4]nonan-6-one hydrochloride] | 10 | 126 |
| CN1CC[C@@]2(CC[C@H](c3cc(-c4cc(OC5CC5)ccc4F)ccn3)N2)C1=O [Example 185, (2R,5S)-2-[4-[5-(Cyclopropoxy)-2-fluoro-phenyl]-2-pyridyl]-7-methyl-1,7-diazaspiro[4.4]nonan-6-one hydrochloride] | 7.94 | 63.1 |
| CN1CC[C@@]2(CC[C@H](c3cc(-c4cc5[nH]ncc5cc4F)ccn3)N2)C1=O [Example 186, (2R,5S)-2-[4-(5-Fluoro-1H-indazol-6-yl)-2-pyridyl]-7-methyl-1,7-diazaspiro[4.4]nonan-6-one hydrochloride] | 158 | 6310 |
| CN1CC[C@@]2(CC[C@H](c3cc(-c4cccc5[nH]ncc45)ccn3)N2)C1=O [Example 187, (2R,5S)-2-[4-(1H-Indazol-4-yl)-2-pyridyl]-7-methyl-1,7-diazaspiro[4.4]nonan-6-one hydrochloride] | 200 | 1000 |
| COCc1ccc(F)c(-c2ccnc([C@H]3CC[C@@]4(CCN(C)C4=O)N3)c2)c1 [Example 188, (2R,5S)-2-[4-[2-Fluoro-5-(methoxymethyl)phenyl]-2-pyridyl]-7-methyl-1,7-diazaspiro[4.4]nonan-6-one hydrochloride] | 100 | 501 |
| CCOCc1ccc(F)c(-c2ccnc([C@H]3CC[C@@]4(CCN(C)C4=O)N3)c2)c1 [Example 189, (2R,5S)-2-[4-[5-(Ethoxymethyl)-2-fluoro-phenyl]-2-pyridyl]-7-methyl-1,7-diazaspiro[4.4]nonan-6-one hydrochloride] | 25.1 | 251 |
| CCOc1ccc(-c2ccnc([C@H]3CC[C@@]4(CCN(C)C4=O)N3)c2)cc1OCC [Example 190, (2R,5S)-2-[4-(3,4-Diethoxyphenyl)-2-pyridyl]-7-methyl-1,7-diazaspiro[4.4]nonan-6-one hydrochloride] | 100 | 10000 |
| CN1CC[C@@]2(CC[C@H](c3cc(-c4cc(-c5cnn(C)c5)ccc4F)ccn3)N2)C1=O [Example 191, (2R,5S)-2-[4-[2-Fluoro-5-(1-methylpyrazol-4-yl)phenyl]-2-pyridyl]-7-methyl-1,7-diazaspiro[4.4]nonan-6-one hydrochloride] | 25.1 | 398 |
| CN1CC[C@@]2(CC[C@H](c3cc(-c4cc(-c5ccnn5C)ccc4F)ccn3)N2)C1=O [Example 192, (2R,5S)-2-[4-[2-Fluoro-5-(2-methylpyrazol-3-yl)phenyl]-2-pyridyl]-7-methyl-1,7-diazaspiro[4.4]nonan-6-one hydrochloride] | 1000 |  |
| Cc1ccnn1-c1ccc(F)c(-c2ccnc([C@H]3CC[C@@]4(CCN(C)C4=O)N3)c2)c1 [Example 193, (2R,5S)-2-[4-[2-Fluoro-5-(5-methylpyrazol-1-yl)phenyl]-2-pyridyl]-7-methyl-1,7-diazaspiro[4.4]nonan-6-one hydrochloride] | 50.1 | 5010 |
| CC(C)COc1cc(-c2ccnc([C@H]3CC[C@@]4(CCN(C)C4=O)N3)c2)ccc1F [Example 194, (2R,5S)-2-[4-(4-Fluoro-3-isobutoxy-phenyl)-2-pyridyl]-7-methyl-1,7-diazaspiro[4.4]nonan-6-one hydrochloride] | 1 | 15.8 |

Now from value to molecule:

| IC50 [1] [µM] | IC50 [2] [µM] | SMILES |
| --- | --- | --- |
| 25.1 | 126 | Cc1cc(C)cc(-c2ccnc([C@H]3CC[C@@]4(CCN(C)C4=O)N3)c2)c1 [Example 174, (2R,5S)-2-[4-(3,5-Dimethylphenyl)-2-pyridyl]-7-methyl-1,7-diazaspiro[4.4]nonan-6-one hydrochloride] |
| 15.8 | 200 | CCOc1cc(F)c(F)c(-c2ccnc([C@H]3CC[C@@]4(CCN(C)C4=O)N3)c2)c1 [Example 175, (2R,5S)-2-[4-(5-Ethoxy-2,3-difluoro-phenyl)-2-pyridyl]-7-methyl-1,7-diazaspiro[4.4]nonan-6-one hydrochloride] |
| 0.398 | 12.6 | CCCOc1ccc(F)c(-c2ccnc([C@H]3CC[C@@]4(CCN(C)C4=O)N3)c2)c1 [Example 177, (2R,5S)-2-[4-(2-Fluoro-5-propoxy-phenyl)-2-pyridyl]-7-methyl-1,7-diazaspiro[4.4]nonan-6-one hydrochloride] |
| 25.1 | 631 | CCOc1ccc(C)c(-c2ccnc([C@H]3CC[C@@]4(CCN(C)C4=O)N3)c2)c1 [Example 178, (2R,5S)-2-[4-(5-Ethoxy-2-methyl-phenyl)-2-pyridyl]-7-methyl-1,7-diazaspiro[4.4]nonan-6-one hydrochloride] |
| 0.794 | 31.6 | CCCOc1cccc(-c2ccnc([C@H]3CC[C@@]4(CCN(C)C4=O)N3)c2)c1 [Example 179, (2R,5S)-7-Methyl-2-[4-(3-propoxyphenyl)-2-pyridyl]-1,7-diazaspiro[4.4]nonan-6-one hydrochloride] |
| 5.01 | 100 | CCOc1ccc(Cl)c(-c2ccnc([C@H]3CC[C@@]4(CCN(C)C4=O)N3)c2)c1 [Example 181, (2R,5S)-2-[4-(2-Chloro-5-ethoxy-phenyl)-2-pyridyl]-7-methyl-1,7-diazaspiro[4.4]nonan-6-one hydrochloride] |
| 5.01 | 100 | COc1ccc(F)c(-c2cc(C)nc([C@H]3CC[C@@]4(CCN(C)C4=O)N3)c2)c1 [Example 195, (2R,5S)-2-[4-(2-Fluoro-5-methoxy-phenyl)-6-methyl-2-pyridyl]-7-methyl-1,7-diazaspiro[4.4]nonan-6-one hydrochloride] |
| 0.1 | 1.58 | CCCOc1ccc(F)c(-c2cc(C)nc([C@H]3CC[C@@]4(CCN(C)C4=O)N3)c2)c1 [Example 196, (2R,5S)-2-[4-(2-Fluoro-5-propoxy-phenyl)-6-methyl-2-pyridyl]-7-methyl-1,7-diazaspiro[4.4]nonan-6-one hydrochloride] |
| 5.01 | 50.1 | CCOc1cc(F)cc(-c2cc(C)nc([C@H]3CC[C@@]4(CCN(C)C4=O)N3)c2)c1 [Example 197, (2R,5S)-2-[4-(3-Ethoxy-5-fluoro-phenyl)-6-methyl-2-pyridyl]-7-methyl-1,7-diazaspiro[4.4]nonan-6-one hydrochloride] |
| 5.01 | 63.1 | Cc1cc(-c2cc(OC(C)C)ccc2F)cc([C@H]2CC[C@@]3(CCN(C)C3=O)N2)n1 [Example 198, (2R,5S)-2-[4-(2-Fluoro-5-isopropoxy-phenyl)-6-methyl-2-pyridyl]-7-methyl-1,7-diazaspiro[4.4]nonan-6-one hydrochloride] |
| 25.1 | 158 | CCOc1cccc(-c2cc(C)nc([C@H]3CC[C@@]4(CCN(C)C4=O)N3)c2)c1F [Example 199, (2R,5S)-2-[4-(3-Ethoxy-2-fluoro-phenyl)-6-methyl-2-pyridyl]-7-methyl-1,7-diazaspiro[4.4]nonan-6-one hydrochloride] |
| 2 | 31.6 | Cc1cc(-c2cc(OC(F)(F)F)ccc2F)cc([C@H]2CC[C@@]3(CCN(C)C3=O)N2)n1 [Example 200, (2R,5S)-2-[4-[2-Fluoro-5-(trifluoromethoxy)phenyl]-6-methyl-2-pyridyl]-7-methyl-1,7-diazaspiro[4.4]nonan-6-one hydrochloride] |
